Values after ≈ are worked out from the molar mass of the structure shown.
Tests used:
[1] = test system: Mycobacterium bovis BCG strain TMC1019 (ATCC35737); test: microbe, parasite or virus in culture; format: cell-based; details: Mycobacterium tuberculosis variant bovis BCG, 24 h, read-out: M. bovis ATCC35737 (ug/mL)
[2] = test system: Mycobacterium tuberculosis H37Rv strain; test: In vitro MIC against M. tuberculosis H37Rv strain (MABA, Alamar Blue); format: cell-based
Description: Part I: The in vitro efficacy of anti-Mycobacterium tuberculosis compounds was tested using H37Rv strain.
On the day of the test, the compound was dissolved in pure DMSO (Sigma 276855-2L) to a concentration of 10 mg/mL which was used as the mother liquor of the compound. 30 μL of DMSO was added to wells of column 2 to 11 s of the v-bottom 96-well plates (Axygen-wipp02280). 30 μL of the mother liquor of the compound was added to the well of column 2, after mixing, 30 μL was taken from the well of column 2 and added to the well of column 3, and then pipetted and mixed. The operation was taken to column 10. Column 11 was free of medicine and contained only 30 μL of DMSO. This was the “motherplate” of the compound. From column 2 to 11, the corresponding concentration of the compound was 5, 2.5, 1.25, 0.625, 0.3125, 0.156, 0.078, 0.039, 0.02, 0 mg/mL. […] A flat bottom 96-well plate (Greiner 655090) was used as a “daughterplate”. 98 μL of 7H9 (Sigma M0178) medium was added to the wells of all daughterplates. 2 μL of compound was extracted from the motherboard and added to the corresponding daughter plate. Line A and H, column 1 and 12 of the daughterplate contained only 7H9 medium.
The H37Rv strain in the glycerol cryovial was inoculated into 7H9 medium containing 0.05% Tween 80 and cultured for 4 weeks at 37° C. in a shaker with 200 rpm. The bacterial liquid was washed twice with 7H9 medium containing 0.05% Tween 80 and resuspended in the same medium. The absorbance of the bacteria liquid was adjusted to OD550=0.4-0.5 using the same medium. The bacteria liquid was sub-packed in microcentrifuge tubes and stored at −80° C. Storage time was no more than 1 month. On the day of the test, the packaged bacteria liquid would be […]. The bacteria liquid was diluted 20 times and then diluted 50 times with 7H9 medium, and a total of 1000 times dilution. The bacteria liquid would be used to inoculate on the daughterplate. 100 μL of bacterial liquid was inoculated in each well of the daughterboard, 100 μL 7H9 medium was added to column 12 and without bacteria liquid.
The test daughterplate was placed in an incubator at 37° C. and the humidity was maintained at >80%. A week later, 12.5 μL of 7H9 medium containing 20% Tween 80 and 20 μL of Alamar Blue (Invitrogen DAL1100) were added to the well of a column 1 containing bacteria and the well of a column 12 without bacteria every day, and then continue to incubate for 24 hours and observed. When the added Alamar Blue was reduced to pink in 24 hours by the bacteria liquid in the well of column 1, the 7H9 medium containing 20% Tween 80 and Alamar Blue were added to all wells on the test plate and the fluorescence values were measured after incubation for 24 hours at 37° C.

M. tuberculosis H37R = test: M. tuberculosis LORA MIC; format: cell-based; details: Mycobacterium tuberculosis, read-out: M. tuberculosis H37R LORA (MIC) (ug/mL)
Vero Cell = test: Vero cell cytotoxicity; format: cell-based; details: Chlorocebus sabaeus, Vero cells
Kinetic solubility test = format: physicochemical; details: buffer, 22 °C, aqueous buffer, kinetic from dmso stock, pH 2.0, room temperature
Description: 1. […] The test compound and the control compound (10 mM DMSO mother liquor, 10 uL per well) were added to a 96-well plate containing 490 uL of buffer per well. After vortexing for 2 minutes, the plates were incubated on the shaker at room temperature (22±2° C.) for 24 hours. The 200 uL sample was then transferred to a MultiScreen filter plate (polycarbonate film), filtered through a millipore vacuum manifold, and the filtrate was collected. The concentration of the compound in the filtrate was determined by HPLC-UV. Three different concentrations of UV standard solution and solubility test samples were injected successively. Each sample was injected 2 times, and the concentration was taken into the standard curve, and the average value was calculated.

P-glycoprotein (MDR1) = test: MDR1-MDCK cell bi-directional permeability; format: in vitro ADME; details: dog; for Papp A→B at 2.5 h, 2 μM: A to B, HBSS pH 7.4, read-out: MDR1-MDCK Monolayer Cell Bi-directional Permeability Parameters A to B; for Papp B→A at 2.5 h, 2 μM: B to A, HBSS pH 7.4, read-out: MDR1-MDCK Monolayer Cell Bi-directional Permeability Parameters B to A; for efflux ratio at 2.5 h, 2 μM: HBSS pH 7.4, read-out: MDR1-MDCK Monolayer Cell Bi-directional Permeability Parameters Efflux Ratio
Description: 2. MDR1-MDCK cell bi-directional permeability evaluation experiment: MDR1-MDCK cells that permanently express human P-glycoprotein (P-glycoprotein) were planted on 96-well Insert cell plates and cultured for 4 to 7 days to form aggregated monolayer cells. The assessment of unidirectional (A→B) permeability of the fenoterol (low permeability marker) and propranolol (high permeability marker) and the bi-directional permeability of Digoxin (a P-glycoprotein substrate) were used to verify the quality of monolayer cells. The three control compounds do two complex wells.
The standard conditions for the transport experiments of the test compound were as follows: • Test concentration: 2 μM (DMSO≤1%); • Repetition: n=3; • Direction: bidirectional transport consisting of two directions: A→B and B→A; • Incubation time: single time point, 2.5 hours; • Transport buffer: HB SS, pH 7.4; • Incubation conditions: 37° C., 5% CO2, 95% relative humidity.
After the incubation, the sample solutions taken from the donor wells and the receive wells were immediately mixed with a cold acetonitrile solution containing the internal standard. And the amount of accumulation of intracellular compounds was measured by lysing the cells with a cold acetonitrile solution containing the internal standard. The concentrations of the test compound in all samples (including the initial administration solution, the supernatant of donor wells, the receiver solution, the cell lysate) were analyzed by the LC/MS/MS method. The concentration of the test compound was expressed by the ratio of its peak area to the internal standard peak area.

[3] = Pharmacokinetics in vivo in mice; details: CD-1 male mice; for Pulmonary Drug Concentration (nM/Kg) PO 1 (h): lung, 1 h after administration; for Cmax: mouse, plasma
Description: The pharmacokinetic characteristics of rodents after intravenous and oral administration of the compound were tested in a standard protocol. Specifically, the candidate compounds of the experiment were injected intravenously and administered orally for 7 to 10 weeks old CD-1 male mice. The oral preparation was a 0.5% suspension of methylcellulose, and the intravenous preparation was a clear solution of ethanol/DMSO/polyethylene glycol 400/pure water (10:10:50:30). Plasma and lung samples were collected and analyzed by the LC-MS/MS method and the pharmacokinetic parameters were calculated.

Structure (SMILES)	MIC [1] [µg/mL]	MIC [2] [µg/mL]	MIC (M. tuberculosis H37R) [µg/mL]	IC50 (Vero Cell) [µg/mL]	solubility kinetic at 24 h (Kinetic solubility test) [µM]	Papp A→B at 2.5 h, 2 μM (P-glycoprotein (MDR1)) [×10⁻⁶ cm/s]	Papp B→A at 2.5 h, 2 μM (P-glycoprotein (MDR1)) [×10⁻⁶ cm/s]	efflux ratio at 2.5 h, 2 μM (P-glycoprotein (MDR1))	Pulmonary Drug Concentration (nM/Kg) PO 1 (h) [3] [nM/kg]	drug concentration in lung relative to the reference compound (OPC-67683) ([3]; oral, 1 hour after administration)	Cmax ([3]; oral) [nM]
C[C@]1(CN2CCc3nc(-c4ccc(F)cc4F)ccc3C2)Cn2cc([N+](=O)[O-])nc2O1 [Compound 13, (S)-2-((2-(2,4-Difluorophenyl)-7,8-dihydro-1,6-naphthyridin-6(5H)-yl)methyl)-2-methyl-6-nitro-2,3-dihydroimidazo[2,1-b]oxazole]	< 1	< 1	1 to 32 (≈ 2.34 to 74.9 µM)	> 32							
C[C@]1(CN2CCc3nc(-c4ccc(F)cc4)ccc3C2)Cn2cc([N+](=O)[O-])nc2O1 [Compound 7, (S)-2-((2-(4-Fluorophenyl)-7,8-dihydro-1,6-naphthyridin-6(5H)-yl)methyl)-2-methyl-6-nitro-2,3-dihydroimidazo[2,1-b]oxazole]	< 1	< 1	1 to 32 (≈ 2.44 to 78.2 µM)	> 32	143 (≈ 58.7 µg/mL)	17.7	19.3	1.09	16147	more than 9 times	6720
C[C@]1(CN2Cc3nc(-c4ccc(F)cc4)sc3C2)Cn2cc([N+](=O)[O-])nc2O1 [Compound 69, (S)-2-((2-(4-Fluorophenyl)-4H-pyrrolo[3,4-d]thiazol-5(6H)-yl)methyl)-2-methyl-6-nitro-2,3-dihydroimidazo[2,1-b]oxazole]	< 1	< 1	1 to 32 (≈ 2.49 to 79.7 µM)	> 32	39.3 (≈ 15.8 µg/mL)	20.9	15.8	0.76			
C[C@]1(CN2CCc3nc(-c4ccco4)ccc3C2)Cn2cc([N+](=O)[O-])nc2O1 [Compound 25, (S)-2-((2-(Furan-2-yl)-7,8-dihydro-1,6-naphthyridin-6(5H)-yl)methyl)-2-methyl-6-nitro-2,3-dihydroimidazo[2,1-b]oxazole]	< 1	< 1	1 to 32 (≈ 2.62 to 83.9 µM)	> 32							
C[C@]1(CN2CCc3nc(-c4ccccc4F)ccc3C2)Cn2cc([N+](=O)[O-])nc2O1 [Compound 5, (S)-2-((2-(2-Fluorophenyl)-7,8-dihydro-1,6-naphthyridin-6(5H)-yl)methyl)-2-methyl-6-nitro-2,3-dihydroimidazo[2,1-b]oxazole]	< 1	< 1	1 to 32 (≈ 2.44 to 78.2 µM)	> 32							
CC1(CN2CCc3nc(-c4ccccc4)ccc3C2)Cn2cc([N+](=O)[O-])nc2O1 (single isomer, unassigned) [Compound 1B, 2-methyl-6-nitro-2-((2-phenyl-7,8-dihydro-1,6-naphthyridin-6(5H)-yl)methyl)-2,3-dihydroimidazo[2,1-b]oxazole]	< 1	< 1	1 to 32 (≈ 2.55 to 81.8 µM)	> 32	130 (≈ 50.7 µg/mL)	16.8	22.7	1.35			
C[C@]1(CN2Cc3nc(-c4ccc(F)cc4)oc3C2)Cn2cc([N+](=O)[O-])nc2O1 [Compound 89, (S)-2-(4-Fluorophenyl)-5-((2-methyl-6-nitro-2,3-dihydroimidazo[2,1-b]oxazol-2-yl)methyl)-5,6-dihydro-4H-pyrrolo[3,4-d]oxazole]	< 1	< 1		> 32	100 (≈ 38.7 µg/mL)	25.9	18.5	0.71			
C[C@]1(COc2ccc(N3CCC(Oc4ccc(OC(F)(F)F)cc4)CC3)cc2)Cn2cc([N+](=O)[O-])nc2O1 [OPC-67683, delamanid, reference compound]						0.09	0.17		1677		4740
